# Like-named read-outs stand apart in the source and are kept apart here.
# Legend:
# human serum albumin = settings: cited from earlier work
# NHEK-1 cells = settings: non-cancer cells; cited from earlier work
# [1] = target: T1, horse serum butyrylcholinesterase (hsBuChE) (Equus caballus, UniProt P81908); settings: read-out: hsBuChE IC50; previously reported; cited from earlier work
# [2] = system: glutathione-S-transferase; settings: cited from earlier work
# [3] = target: T2, electric eel acetylcholinesterase (eeAChE) (Electrophorus electricus, UniProt O42275); settings: read-out: eeAChE IC50; previously reported; cited from earlier work
# [4] = cited from earlier work
# [5] = target: T1, horse serum butyrylcholinesterase (hsBuChE); assay: biochemical; format: biochemical; design: purchased Sigma, St. Louis, MO, USA; host or cells: horse serum; settings: for Ki: three substrate concentrations (0.125, 0.25, 0.5 mM)
# Method: (§1) Cholinesterase activities were measured by the Ellman method adapted for microtiter plates, as described in Ristovski et al.. Stock solutions of the prepared ruthenium compounds (1 mg/mL) or neostigmine bromide (Sigma-Aldrich, St. Louis, MO, USA) as a positive control were prepared in 100% ethanol and progressively diluted in 100 mM potassium phosphate buffer (pH 7.4) to a final volume of 50 µL. Then, 1 mM acetylthiocholine chloride and 0.5 mM 5,5′-dithiobis-2-nitrobenzoic acid were dissolved in the same buffer and added to the wells of the microtiter plates to the final volume of 150 μL. Electric eel acetylcholinesterase (eeAChE) or horse serum BChE (hsBuChE) (both Sigma, St. Louis, MO, USA) were dissolved in the same buffer to 0.0075 U/mL. Fifty μL of each of the cholinesterases was added to start the reactions, which were followed spectrophotometrically at 405 nm and 25 °C for 5 min using a kinetic microplate reader (Dynex Technologies, Chantilly, VA, USA). Blank reactions without the inhibitors were run in the presence of the appropriate dilution of ethanol. Every measurement was repeated at least three times. For determination of the inhibitory constants, the kinetics were monitored using three different final substrate concentrations (0.125, 0.25, 0.5 mM).
# immunoglobulins G = settings: human serum; cited from earlier work
# neuromuscular transition = settings: at pharmaceutically relevant concentrations; cited from earlier work
# [6] = target: T2, electric eel acetylcholinesterase (eeAChE); assay: biochemical; format: biochemical; design: purchased Sigma, St. Louis, MO, USA; settings: for Ki: three substrate concentrations (0.125, 0.25, 0.5 mM)
# Method: as §1
# HUVEC cells = settings: non-cancer cells; cited from earlier work
# human AChE (hAChE) = settings: read-out: hAChE IC50; previously reported; cited from earlier work
# [7] = phosphate buffer solution, cultural media RPMI and FP-RPMI, plasma; cited from earlier work
# [8] = ESI-MS stability in solution; settings: positive ion mode, direct infusion; immediately before measurement and after three days
# [9] = 1H NMR stability in aqueous media
# Method: All assays were carried out immediately after the solution preparation.
# [10] = concentration inducing 50% inhibition of enzyme activity, mean ± SEM of three independent measurements, / = no activity, read-out: hsBuChE IC50
# [11] = concentration inducing 50% inhibition of enzyme activity, mean ± SEM of three independent measurements, / = no activity, read-out: eeAChE IC50
# [12] = read-out: hsBuChE IC50, concentration inducing 50% inhibition of enzyme activity, mean ± SEM of three independent measurements, / = no activity
# [13] = read-out: eeAChE IC50, concentration inducing 50% inhibition of enzyme activity, mean ± SEM of three independent measurements, / = no activity
# T1 sequence (P81908 whole entry): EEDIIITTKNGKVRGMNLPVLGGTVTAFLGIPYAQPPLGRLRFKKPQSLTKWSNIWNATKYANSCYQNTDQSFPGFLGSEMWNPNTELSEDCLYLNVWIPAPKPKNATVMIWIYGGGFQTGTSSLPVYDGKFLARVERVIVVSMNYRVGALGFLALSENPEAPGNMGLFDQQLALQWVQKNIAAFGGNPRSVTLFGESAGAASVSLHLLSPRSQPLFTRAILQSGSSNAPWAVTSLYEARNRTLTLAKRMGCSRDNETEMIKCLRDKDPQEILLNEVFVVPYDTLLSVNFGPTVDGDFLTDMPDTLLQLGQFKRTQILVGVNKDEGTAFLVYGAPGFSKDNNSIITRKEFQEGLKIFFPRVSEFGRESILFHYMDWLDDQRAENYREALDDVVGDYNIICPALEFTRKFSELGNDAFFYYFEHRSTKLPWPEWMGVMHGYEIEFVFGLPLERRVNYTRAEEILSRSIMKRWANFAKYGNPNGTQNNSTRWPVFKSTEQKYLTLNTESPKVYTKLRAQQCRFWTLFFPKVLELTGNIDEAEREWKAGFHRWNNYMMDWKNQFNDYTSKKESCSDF
# T2 sequence (O42275 24-633): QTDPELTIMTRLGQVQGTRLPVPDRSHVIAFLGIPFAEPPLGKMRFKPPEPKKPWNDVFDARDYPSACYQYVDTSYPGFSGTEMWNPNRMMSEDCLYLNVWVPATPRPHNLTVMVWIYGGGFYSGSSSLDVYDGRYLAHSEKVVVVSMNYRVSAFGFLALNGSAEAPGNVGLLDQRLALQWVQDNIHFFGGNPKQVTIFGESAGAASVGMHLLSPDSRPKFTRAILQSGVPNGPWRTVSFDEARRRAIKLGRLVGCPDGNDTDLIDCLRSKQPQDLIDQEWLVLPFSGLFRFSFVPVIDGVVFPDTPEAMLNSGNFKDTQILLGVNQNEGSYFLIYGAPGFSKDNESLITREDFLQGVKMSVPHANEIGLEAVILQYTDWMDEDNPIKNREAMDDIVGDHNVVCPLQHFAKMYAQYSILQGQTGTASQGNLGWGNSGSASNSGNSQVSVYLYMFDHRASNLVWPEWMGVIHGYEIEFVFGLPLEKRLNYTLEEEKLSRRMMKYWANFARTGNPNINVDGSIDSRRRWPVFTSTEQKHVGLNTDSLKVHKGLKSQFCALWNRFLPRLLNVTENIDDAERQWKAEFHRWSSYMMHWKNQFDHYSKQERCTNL
Molecule,"IC50 [5, 10]",Ki [5],"IC50 [6, 11]",Ki [6],also measured
Cc1ccc(C(C)C)cc1.[Cl][Ru+].[O-]n1ccccc1=S [Compound 1a],2.3 ± 0.1 µM,0.5 µM,7.8 ± 0.8 µM,15.1 µM,fraction interacting with human serum albumin (human serum albumin): 70%; fraction remaining unbound (human serum albumin): 25%; cytotoxicity against NHEK-1 cells (NHEK-1 cells): no cytotoxicity; IC50 [1]: 7.52 µM; inhibition of glutathione-S-transferase [2]: inhibited; IC50 [3]: 5.01 µM; stability in D2O solution containing NaCl [4]: confirmed the stability; stability in DMSO-d6/D2O (1H NMR) [4]: stable; fraction interacting with immunoglobulins G (immunoglobulins G): 5%; physiological response on the neuromuscular transition (neuromuscular transition): did not express any unwanted physiological response; cytotoxicity against HUVEC cells (HUVEC cells): no cytotoxicity; IC50 (human AChE (hAChE)): 25.1 µM
Cc1ccc(C(C)C)cc1.Cc1cccn([O-])c1=S.[Cl-].[Ru+2] [Compound 1b],1.2 ± 0.02 µM,0.4 µM,10.5 ± 0.7 µM,9.7 µM,"stability in aqueous media (UV-Vis) [7]: stable; stability in aqueous solution (ESI-MS, [M − Cl]+ ion) [8]: same spectrum"
Cc1ccc(C(C)C)cc1.Cc1ccn([O-])c(=S)c1.[Cl-].[Ru+2] [Compound 1c],2.7 ± 0.8 µM,0.9 µM,9.5 ± 1.1 µM,8.5 µM,
Cc1ccc(=S)n([O-])c1.Cc1ccc(C(C)C)cc1.[Cl-].[Ru+2] [Compound 1d],1.9 ± 0.4 µM,0.4 µM,6.6 ± 0.5 µM,9.7 µM,
Cc1ccc(C(C)C)cc1.Cc1cccc(=S)n1[O-].[Cl-].[Ru+2] [Compound 1e],0.7 ± 0.1 µM,3.4 µM,5.1 ± 0.4 µM,4.9 µM,"stability under enzymatic assay conditions (1H NMR) ([9]; 6.25% EtOH-d6/D2O, 80.2 mM K2HPO4 and 19.8 mM KH2PO4, immediately and after one hour): remain stable; stability in D2O containing 140 mM NaCl (1H NMR) ([9]; after one day): negligible changes; stability in D2O (1H NMR) ([9]; immediately and after three days): remain the main present species"
"Cc1ccc(C(C)C)cc1.[Cl][Ru+].[O-]n1ccc2ccccc2c1=S [Compound 1f, [(η^6-p-Cymene)Ru(2-hydroxyisoquinoline-1-(2H)-thionato)Cl]]",1.3 ± 0.1 µM,0.4 µM,8.1 ± 0.5 µM,12.3 µM,
"CN(C)C(=O)Oc1cccc([N+](C)(C)C)c1 [Neostigmine bromide, reference compound]",,,,,IC50 [5]: 37.3 ± 4.2 µM; IC50 [6]: 4.3 ± 0.8 µM
"On1ccccc1=S [a, 1-hydroxypyridine-2(1H)-thione]",,,,,"IC50 [5, 12]: > 100 µM; IC50 [6, 13]: > 100 µM"
Cc1cccn(O)c1=S [b],,,,,"IC50 [5, 12]: > 100 µM; IC50 [6, 13]: > 100 µM"
Cc1ccn(O)c(=S)c1 [c],,,,,IC50 ([5]; read-out: hsBuChE IC50): > 100 µM; IC50 ([6]; read-out: eeAChE IC50): > 100 µM
Cc1ccc(=S)n(O)c1 [d],,,,,"IC50 [5, 12]: > 100 µM; IC50 [6, 13]: > 100 µM"
Cc1cccc(=S)n1O [e],,,,,"IC50 [5]: > 100 µM; IC50 [6, 13]: > 100 µM"
"On1ccc2ccccc2c1=S [f, 2-Hydroxyisoquinoline-1-(2H)-thione]",,,,,"IC50 [5, 12]: > 100 µM; IC50 [6, 13]: > 100 µM"
"On1c(=S)ccc2ccccc21 [g, 1-Hydroxyquinoline-2-(1H)-thione]",> 100 µM,,> 100 µM,,
"On1cc2ccccc2cc1=S [h, 2-Hydroxyisoquinoline-3-(2H)-thione]",53 µM,,> 100 µM,,activity against hsBuChE (in words) [5]: poorly active; activity against eeAChE (in words) [6]: poorly active
[(η^6-p-Cymene)Ru(1-hydroxyquinoline-2-(1H)-thionato)Cl] [Compound 1g],0.2 ± 0.05 µM,0.2 µM,4.9 ± 0.1 µM,5.6 µM,
[(η^6-p-Cymene)Ru(2-hydroxyisoquinoline-3-(2H)-thionato)Cl] [Compound 1h],0.7 ± 0.1 µM,0.2 µM,14.3 ± 2 µM,20.1 µM,
